The test system of one assay is isolated mouse hearts. Kind of assay: Effect on isolated hearts according to the Langendorff method. The conditions noted are these: read-out: EC50 (Langendorff experiment). As to the method: The compounds were tested for their potential to reduce blood pressure and their effect on the contractility of the heart muscle. EC50 values on isolated mouse hearts were determined according to Literature (Doring H J., The isolated perfused heart according to Langendorff technique—function—application, Physiol. Bohemoslov. 1990, 39(6), 481-504; Kligfield P, Horner H, Brachfeld N., A model of graded ischemia in the isolated perfused rat heart, J. Appl. Physiol. 1976 June, 40(6), 1004-8).

A further assay has as its target T1, human Cav1.2 channel (Homo sapiens, UniProt Q13936).
T1 construct: expressed in transfected cells; host or cells: HEK293
Kind of assay: In vitro assay L channel (FLIPR, KCl-induced calcium fluorescence). The conditions noted are these: HEK293 cells expressing human Cav1.2 with β-2a and α2δ-1; 20 mM KCl depolarization; range stated for the group; read-out: IC50 (L channel antagonistic activity). Type of assay: cell-based. As to the method: The L channel antagonistic activity (IC50 values) of the compounds of formula (I) is determined in accordance with the following experimental method.
Human embryonic kidney (HEK293) cells expressing the human Cav1.2 channel in addition to the auxiliary subunits β-2a and α2δ-1, are grown in culture medium (DMEM containing 10% heat-inactivated fetal calf serum (FCS), 100 U/ml penicillin, 100 μg/ml streptomycin, 100 μg/ml G418, 40 μg/ml zeocin and 100 μg/ml hygromycin). The cells are seeded at 20,000 cells/well into 384-well black clear bottom sterile plates (poly-L-lysine-coated, Becton Dickinson). The seeded plates are incubated overnight at 37° C. in 5% CO2. The KCl solution is prepared as 80 mM stock solution in assay buffer (HBSS containing 0.1% BSA, 20 mM HEPES, 0.375 g/l NaHCO3, adjusted to pH 7.4 with NaOH) for use in the assay at a final concentration of 20 mM. Antagonists are prepared as 10 mM stock solutions in DMSO, then diluted in 384w plates first in DMSO, then in assay buffer to obtain 3× stocks. On the day of the assay, 25 μl of staining buffer (HBSS containing 20 mM HEPES, 0.375 g/l NaHCO3, and 30 μM of the fluorescent calcium indicator fluo-4 AM (1 mM stock solution in DMSO, containing 10% pluronic) is added to each well of the seeded plate. The 384-well cell-plates are incubated for 60 min at 37° C. in 5% CO2 followed by washing with […] using assay buffer leaving […] of this buffer for equilibration at room temperature (30-60 min). Within the Fluorescent Imaging Plate Reader (FLIPR, Molecular Devices), antagonists are added to the plate in a volume of 25 μl/well, incubated for 3 min and finally 25 μl/well of KCl solution is added for cellular depolarization. Fluorescence is measured for each well at 2 second intervals for 8 minutes, and the area under the curve of each fluorescence peak is compared to the area of the fluorescence peak induced by 20 mM KCl with vehicle in place of antagonist. […]

For assay [1], the system named is human Cav3.1 Cav3.2 or Cav3.3 channel. As to the kind of experiment: In vitro assay T channel (FLIPR, Ca2+-induced calcium fluorescence). The settings on record: HEK293 cells expressing human Cav3.1, Cav3.2 or Cav3.3; 10 mM Ca2+; subtype not specified in Table 1; read-out: IC50 (T channel antagonistic activity). The class given is cell-based. As to the method: The T channel antagonistic activity (IC50 values) of the compounds of formula (I) is determined in accordance with the following experimental method and data are shown in Table 1.
Human embryonic kidney (HEK293) cells expressing the human Cav3.1 Cav3.2 or Cav3.3 channel, respectively, are grown in culture medium (DMEM containing 10% heat-inactivated fetal calf serum (FCS), 100 U/ml penicillin, 100 μg/ml streptomycin and 1 mg/ml G418). The cells are seeded at 20,000 cells/well into 384-well black clear bottom sterile plates (poly-L-lysine-coated, Becton Dickinson). The seeded plates are incubated overnight at 37° C. in 5% CO2. […] On the day of the assay, 25 μl of staining buffer (HBSS containing 20 mM HEPES, 0.375 g/l NaHCO3 and 30 μM of the fluorescent calcium indicator fluo-4 AM (1 mM stock solution in DMSO, containing 10% pluronic) is added to each well of the seeded plate. The 384-well cell-plates are incubated for 60 min at 37° C. in 5% CO2 followed by washing with […] using HBSS containing 0.1% BSA, 20 mM HEPES, 0.375 g/l NaHCO3, leaving […] of this buffer for equilibration at room temperature (30-60 min). Within the Fluorescent Imaging Plate Reader (FLIPR, Molecular Devices), antagonists are added to the plate in a volume of […], incubated for 3 min, and finally […] of Ca^2+solution is added. […]

Among the data in US20110039905A1, “BENZIMIDAZOLE DERIVATIVES AS CALCIUM CHANNEL BLOCKERS” (priority 2008, published 2011) are EC50 and IC50 values, retold here.

T1 sequence (Q13936 whole entry): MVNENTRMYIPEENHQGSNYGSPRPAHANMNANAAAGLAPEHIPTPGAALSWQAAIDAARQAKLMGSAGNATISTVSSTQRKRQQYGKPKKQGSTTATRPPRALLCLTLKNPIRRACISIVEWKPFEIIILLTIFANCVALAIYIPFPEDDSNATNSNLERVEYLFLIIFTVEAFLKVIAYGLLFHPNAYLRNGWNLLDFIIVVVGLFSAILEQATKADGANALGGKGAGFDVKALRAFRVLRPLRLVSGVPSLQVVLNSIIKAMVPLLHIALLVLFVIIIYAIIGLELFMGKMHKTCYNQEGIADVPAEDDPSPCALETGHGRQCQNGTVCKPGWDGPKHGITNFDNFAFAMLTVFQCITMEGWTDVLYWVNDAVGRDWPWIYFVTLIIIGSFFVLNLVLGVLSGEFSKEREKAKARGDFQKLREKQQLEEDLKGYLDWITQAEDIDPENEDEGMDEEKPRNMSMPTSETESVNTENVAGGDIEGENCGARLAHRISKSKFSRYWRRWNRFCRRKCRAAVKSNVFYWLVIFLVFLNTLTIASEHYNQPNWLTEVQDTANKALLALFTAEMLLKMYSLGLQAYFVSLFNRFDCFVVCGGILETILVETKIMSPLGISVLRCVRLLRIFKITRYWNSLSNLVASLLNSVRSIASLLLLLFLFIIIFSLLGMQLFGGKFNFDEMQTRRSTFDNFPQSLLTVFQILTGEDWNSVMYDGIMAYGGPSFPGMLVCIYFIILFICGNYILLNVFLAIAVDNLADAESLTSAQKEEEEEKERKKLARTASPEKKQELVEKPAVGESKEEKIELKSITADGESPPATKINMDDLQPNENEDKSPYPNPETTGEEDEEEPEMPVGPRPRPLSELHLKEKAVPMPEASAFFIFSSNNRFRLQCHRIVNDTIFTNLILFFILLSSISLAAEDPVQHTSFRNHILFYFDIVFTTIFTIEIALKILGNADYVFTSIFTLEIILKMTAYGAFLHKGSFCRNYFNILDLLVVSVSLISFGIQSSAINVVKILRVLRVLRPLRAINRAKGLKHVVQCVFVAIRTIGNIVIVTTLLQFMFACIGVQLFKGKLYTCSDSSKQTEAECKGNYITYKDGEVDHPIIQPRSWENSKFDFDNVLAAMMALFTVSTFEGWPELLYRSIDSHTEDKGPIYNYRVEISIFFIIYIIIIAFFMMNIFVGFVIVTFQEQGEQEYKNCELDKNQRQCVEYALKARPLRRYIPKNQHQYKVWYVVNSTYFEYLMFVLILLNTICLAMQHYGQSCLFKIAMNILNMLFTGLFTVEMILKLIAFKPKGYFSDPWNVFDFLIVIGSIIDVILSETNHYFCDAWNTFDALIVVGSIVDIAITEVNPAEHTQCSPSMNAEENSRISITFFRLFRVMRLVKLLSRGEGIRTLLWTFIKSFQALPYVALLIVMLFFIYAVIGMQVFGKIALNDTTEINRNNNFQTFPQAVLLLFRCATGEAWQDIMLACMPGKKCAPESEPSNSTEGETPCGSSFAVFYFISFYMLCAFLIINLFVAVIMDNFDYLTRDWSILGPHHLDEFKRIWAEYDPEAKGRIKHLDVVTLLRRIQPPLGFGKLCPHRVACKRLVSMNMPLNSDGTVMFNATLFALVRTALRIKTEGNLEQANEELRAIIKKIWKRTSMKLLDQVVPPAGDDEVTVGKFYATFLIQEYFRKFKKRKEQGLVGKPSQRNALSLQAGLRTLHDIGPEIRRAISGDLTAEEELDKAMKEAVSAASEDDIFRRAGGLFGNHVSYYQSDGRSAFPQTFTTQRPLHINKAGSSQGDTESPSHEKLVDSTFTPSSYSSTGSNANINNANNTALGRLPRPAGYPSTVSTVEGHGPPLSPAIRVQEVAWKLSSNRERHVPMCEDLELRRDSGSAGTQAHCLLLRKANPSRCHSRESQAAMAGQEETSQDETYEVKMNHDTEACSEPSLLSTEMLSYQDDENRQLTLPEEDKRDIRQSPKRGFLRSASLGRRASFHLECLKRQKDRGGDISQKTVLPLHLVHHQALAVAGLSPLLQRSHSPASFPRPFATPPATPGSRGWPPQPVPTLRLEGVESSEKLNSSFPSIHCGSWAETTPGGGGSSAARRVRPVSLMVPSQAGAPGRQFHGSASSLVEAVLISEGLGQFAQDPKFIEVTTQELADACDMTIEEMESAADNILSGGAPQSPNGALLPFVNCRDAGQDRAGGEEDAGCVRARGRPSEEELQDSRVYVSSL

As for `COc1ccc(OC)c2[nH]c(CCCN(C)CC[C@]3(OC(=O)C(C)C)C[C@H]4CC[C@@H]3C=C4c3ccccc3)nc12` (racemic) [Example 1A, rac-Isobutyric acid (1R*,2R*,4R*)-2-(2-{[3-(4,7-dimethoxy-1H-benzoimidazol-2-yl)-propyl]-methyl-amino}-ethyl)-5-phenyl-bicyclo[2.2.2]oct-5-en-2-yl ester], in the assay with isolated mouse hearts, the EC50 worked out at 5 nM. The IC50 on human Cav1.2 channel lay in the range of 156 to 439 nM.

In the case of `COc1ccc(OC)c2[nH]c(CCCN(C)CCC3(OC(=O)C(C)C)CC4CCC3C=C4c3ccccc3)nc12` (single isomer, unassigned) [Example 3A, Isobutyric acid (1R,2R,4R)-2-(2-{[3-(4,7-dimethoxy-1H-benzoimidazol-2-yl)-propyl]-methyl-amino}-ethyl)-5-phenyl-bicyclo[2.2.2]oct-5-en-2-yl ester or isobutyric acid (1S,2S,4S)-2-(2-{[3-(4,7-dimethoxy-1H-benzoimidazol-2-yl)-propyl]-methyl-amino}-ethyl)-5-phenyl-bicyclo[2.2.2]oct-5-en-2-yl ester], the IC50 in assay [1] is 793 nM.

Take `COc1ccc(OC)c2[nH]c(CCCN(C)CCC3(OC(=O)C(C)C)CC4CCC3C=C4c3ccccc3)nc12` (single isomer, unassigned) [Example 2A, Isobutyric acid (1R,2R,4R)-2-(2-{[3-(4,7-dimethoxy-1H-benzoimidazol-2-yl)-propyl]-methyl-amino}-ethyl)-5-phenyl-bicyclo[2.2.2]oct-5-en-2-yl ester or isobutyric acid (1S,2S,4S)-2-(2-{[3-(4,7-dimethoxy-1H-benzoimidazol-2-yl)-propyl]-methyl-amino}-ethyl)-5-phenyl-bicyclo[2.2.2]oct-5-en-2-yl ester]: the IC50 in assay [1] is 778 nM; at human Cav1.2 channel, 156 to 439 nM.

On to `COc1ccc(OC)c2[nH]c(CCCN(C)CC[C@]3(OC(=O)C(C)C)C[C@H]4CCC[C@@H]3C=C4c3ccccc3)nc12` (racemic) [Example 4A, rac-Isobutyric acid (1R*,5R*,6R*)-6-(2-{[3-(4,7-dimethoxy-1H-benzoimidazol-2-yl)-propyl]-methyl-amino}-ethyl)-8-phenyl-bicyclo[3.2.2]non-8-en-6-yl ester], for which the IC50 on human Cav1.2 channel fell in the range of 156 to 439 nM.

By EC50 is commonly meant the concentration giving half of the maximal effect. What is called IC50 is the point on the concentration scale where inhibition reaches its midpoint.
